Target: T1, hTLR8 (Homo sapiens, UniProt Q9NR97)
T1 construct: plasmids (pcDNA3.1 constructs) coding for full length hTLR2, hTLR7, hTLR8 and hTLR9; expressed in transfected cells; host or cells: 293T cells
T1 sequence (Q9NR97 27-1041): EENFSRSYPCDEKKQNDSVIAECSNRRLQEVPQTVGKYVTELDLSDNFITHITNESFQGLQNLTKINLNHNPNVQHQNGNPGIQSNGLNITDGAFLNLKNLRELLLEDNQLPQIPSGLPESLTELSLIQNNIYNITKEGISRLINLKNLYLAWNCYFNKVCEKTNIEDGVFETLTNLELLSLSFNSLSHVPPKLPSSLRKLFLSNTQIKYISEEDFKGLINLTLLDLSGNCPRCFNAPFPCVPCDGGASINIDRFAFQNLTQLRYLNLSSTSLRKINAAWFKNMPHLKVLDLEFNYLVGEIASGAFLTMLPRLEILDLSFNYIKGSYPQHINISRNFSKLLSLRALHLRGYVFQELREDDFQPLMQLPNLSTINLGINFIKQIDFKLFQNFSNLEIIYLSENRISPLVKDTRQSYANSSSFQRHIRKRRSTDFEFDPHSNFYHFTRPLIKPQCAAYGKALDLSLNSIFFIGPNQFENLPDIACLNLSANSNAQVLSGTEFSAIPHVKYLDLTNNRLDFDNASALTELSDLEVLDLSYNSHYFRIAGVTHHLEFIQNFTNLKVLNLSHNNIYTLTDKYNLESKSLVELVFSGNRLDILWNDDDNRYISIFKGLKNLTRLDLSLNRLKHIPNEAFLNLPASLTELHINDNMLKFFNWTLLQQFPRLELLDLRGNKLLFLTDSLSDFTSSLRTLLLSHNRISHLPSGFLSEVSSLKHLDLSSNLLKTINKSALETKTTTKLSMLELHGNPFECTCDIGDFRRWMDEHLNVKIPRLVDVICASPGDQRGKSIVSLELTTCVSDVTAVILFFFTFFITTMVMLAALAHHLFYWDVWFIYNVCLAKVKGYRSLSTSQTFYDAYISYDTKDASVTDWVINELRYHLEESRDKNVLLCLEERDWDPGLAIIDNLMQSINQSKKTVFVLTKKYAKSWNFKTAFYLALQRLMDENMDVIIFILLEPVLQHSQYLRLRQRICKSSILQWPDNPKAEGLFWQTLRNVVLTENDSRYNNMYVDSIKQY
Experiment: IL-8 production in 293 fibroblasts transiently expressing hTLR8
Type: cell-based
Conditions: CpG-ODN 2 μM, LPS 100 ng/ml
Experimental: The cloned human TLR7 and human TLR8 cDNA were cloned into the expression vector pCDNA3. 1 (−) from Invitrogen using the NotI site. Utilizing a “gain of function” assay, hTLR7 and hTLR8 expression vectors were transiently expressed in human 293 fibroblasts (ATCC, CRL-1573) using the calcium phosphate method. Activation was monitored by IL-8 production after stimulus with CpG-ODN (2006 or 1668, 2 μM) or LPS (100 ng/ml).

Question: With CpG ODN 2006 as the substance, how does the “activation monitored by IL-8 production” value read?
Answer: None of the stimuli used activated

Source: patent US20060188913A1, “Methods and products for enhancing immune responses using imidazoquinoline compounds” (University of Iowa Research Foundation, priority 2001, published 2006)
